Counter-ions that a name gives are not always drawn.
Columns and labels:
histamine H3 receptor = details: statement taken from the literature; cited from earlier work
[1] = system: tibialis anterior muscle damaged by snake venom cardiotoxin (CTX); test: Muscle regeneration in cardiotoxin (CTX) muscle-damage model mouse, regenerated single muscle fiber area; type: in vivo, mouse (C57BL/6); details: once a day; for increase in the mean muscle fiber area as compared with the Vehicle administration group: day before CTX to 6 days after CTX, muscle collected 7 days after CTX; for histogram of the regenerated single-muscle fiber area as compared with the Vehicle administration group: 7 days after CTX
Protocol: Seven-week old C57BL/6 Male mice (CLEA Japan, Inc.) were purchased, and used for experiment at the age of 8 weeks.
A model animal to which muscle damage had been caused by administration of snake venom cardiotoxin (CTX) was used. The muscle-damaged model animal has been widely used in studies on the regeneration from muscle damage.
Under the anesthesia with isoflurane, 50 μL of 10 μM CTX was administered to the tibialis anterior muscle of the right hindlimb of the mouse. After 7 days of the administration of CTX, the tibialis anterior muscle was collected by dissection, and supplied to the preparation of a muscle tissue section.
Immediately after the collection of the tibialis anterior muscle, the tibialis anterior muscle was immersed in isopentane cooled with liquid nitrogen and was rapidly frozen. The frozen muscle tissue was cut into slices each having a thickness of 10 μm by using a cryostat (Leica Biosystems), and the slice was attached onto an antistripping coated slide glass (Matsunami Glass Ind., Ltd.).
A muscle tissue section was sufficiently air dried for 30 minutes under room temperature. After that, the muscle tissue section was fixed by immersing it in acetone cooled to −30° C. and treating at −30° ° C. for 20 minutes. The fixed section was air dried once and washed with PBS. Then the section was blocked by dropwisely adding a blocking reagent (Blocking One, NACALAI TESQUE, INC.) to the section and being subjected to the blocking treatment for 1 hour. Next, a primary antibody (Anti-laminin-2 (α-2 Chain) antibody, Rat monoclonal (Sigma-Aldrich)) obtained by being diluted 500 times with the blocking reagent was added dropwise, and the reaction was conducted at overnight at 4° C. Since laminin to which a primary antibody binds is a protein expressed in all muscle cells, the primary antibody was used in this experiment in order to measure the area of individual muscle cells in a section. The muscle tissue section after the reaction with the primary antibody was washed with PBS, and then was reacted for 1 hour with a secondary antibody (CF 488A Goat Anti-Rat IgG (H+L) (Biotium)) obtained by being diluted 500 times with the blocking reagent. The secondary antibody that is an anti-rat antibody conjugated with a fluorescent dye binds to the primary antibody, and stains the laminin. The muscle tissue section after the reaction with the secondary antibody was washed with PBS, and sealed by using “[…] Hard. Set with DAPI” (Vector), and then the fluorescence observation was performed with an inverted microscope FSX100 (Olympus). The “[…] Hard Set with DAPI” was used for staining the central nucleus of muscle cells.
The muscle regeneration was evaluated on the basis of the image data taken from the fluorescence observation. In this experiment, muscle cells each having a central nucleus (single muscle fiber having a central nuclei) were used as an indicator for regenerated muscle. After the image data was taken into image analysis software ImageJ (NIH), a muscle cell having a central nucleus was extracted. The cross-sectional area of the extracted individual cells was measured on the basis of the cell membrane stained with laminin. For the area measurement, “Analyze Particles” that is an add-in analysis program on ImageJ was used. The measurement results were shown as a distribution chart (histogram) of the areas and number of regenerated single-muscle fibers, and as an average value of the cross-sectional areas of all the regenerated single muscle fibers (mean muscle fiber area). […]

[2] = 1 μM in PBS, 10 μL intramuscular
[3] = 6.3 mM in PBS with 5% tween 20, 10 μL intramuscular

| Compound | selectivity of agonist activity for the histamine H3 receptor over other histamine receptors (histamine H3 receptor) | histogram of the regenerated single-muscle fiber area as compared with the Vehicle administration group [1, 2] | also measured |
| --- | --- | --- | --- |
| c1nc(CC2CCNCC2)c[nH]1 [Compound 13, 4-[(1H-imidazol-4-yl)methyl]piperidine] | selective histamine H3 receptor agonist | – | – |
| c1cc(Cc2c[nH]cn2)ccn1 [Immethridine dihydrobromide, 4-[(1H-imidazol-4-yl)methyl]pyridine] | – | shifted to the right side | increase in the mean muscle fiber area as compared with the Vehicle administration group [1, 2]: 14.0% |
| CNCCc1c[nH]cn1 [N^α-methylhistamine dihydrochloride, 2-(1H-imidazol-4-yl)-N-methylethan-1-amine] | – | shifted to the right side | increase in the mean muscle fiber area as compared with the Vehicle administration group [1, 2]: 7.1% |
| c1cc(Cc2c[nH]cn2)ccn1 [Compound 5, 4-[(1H-imidazol-4-yl)methyl]pyridine] | selective histamine H3 receptor agonist | – | – |
| CCCNC1CN(c2ccnc(N)n2)C1 [Compound 20, 4-[3-(propylamino)azetidin-1-yl]pyrimidin-2-amine] | selective histamine H3 receptor agonist | – | – |
| CN1CCC(Cc2c[nH]cn2)CC1 [Compound 15, 4-[(1H-imidazol-4-yl)methyl]-1-methylpiperidine] | selective histamine H3 receptor agonist | – | – |
| C[C@@H](N)Cc1c[nH]cn1 [R-α-methylhistamine dihydrochloride, (2R)-1-(1H-imidazol-4-yl)propan-2-amine] | – | – | increase in the mean muscle fiber area as compared with the Vehicle administration group [1, 3]: 12.3%; histogram of the regenerated single-muscle fiber area as compared with the Vehicle administration group [1, 3]: shifted to the right side |
| C[C@@H](N)Cc1c[nH]cn1 [Compound 1, (2R)-1-(1H-imidazol-4-yl)propan-2-amine] | selective histamine H3 receptor agonist | – | – |
| CNCCc1c[nH]cn1 [Compound 4, 2-(1H-imidazol-4-yl)-N-methylethan-1-amine] | non-selective histamine H3 receptor agonist | – | – |
| N=C(N)SCCc1c[nH]cn1 [Imetit dihydrobromide, 2-(1H-imidazol-4-yl)ethyl carbamimidothioate] | – | shifted to the right side | increase in the mean muscle fiber area as compared with the Vehicle administration group ([1]; 1 μM in PBS, 10 μL intramuscular, unit not given): 13.18 |

Source: patent US20240269123A1, “MUSCLE REGENERATION PROMOTER” (priority 2021, published 2024)
